Measurements published in US12077503B2, “Substituted cyclic amides and their use as herbicides” (FMC CORPORATION, priority 2015, dated 2024).

Key:
Format in all cases: in vivo
corn (Zea mays) [1] = experiment: Test G Post-Emergence Protocol; conditions: Zea mays, post-emergence, 312 h, read-out: Corn damage rating
Summary of the method: (§1)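 Values are percent visual injury at 13 days after treatment (0 none, 100 total). Treatment was a post-emergence spray at 15.625, 62.5 or 250 g/ha on 8-day-old pot plants kept at 24/16 °C.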

[2] = tested on: redroot pigweed (Amaranthus retroflexus); experiment: Test G Post-Emergence Protocol; conditions: Amaranthus retroflexus, post-emergence, 312 h, read-out: Pigweed, Redroot damage rating
Summary of the method: as §1

[3] = tested on: velvetleaf (Abutilon theophrasti); experiment: Test G Post-Emergence Protocol; conditions: Abutilon theophrasti, post-emergence, 312 h, read-out: Velvetleaf damage rating
Summary of the method: as §1

[4] = tested on: giant foxtail (Setaria faberi); experiment: Test G Post-Emergence Protocol; conditions: Setaria faberi, post-emergence, 312 h, read-out: Foxtail, Giant damage rating
Summary of the method: as §1

[5] = tested on: ivy-leaved morning glory (Ipomoea hederacea); experiment: Test G Post-Emergence Protocol; conditions: Ipomoea, post-emergence, 312 h, read-out: Morningglory, Ivy-leaved damage rating
Summary of the method: as §1

[6] = tested on: barnyardgrass (Echinochloa crus-galli); experiment: Test G Post-Emergence Protocol; conditions: Echinochloa crus-galli, post-emergence, 312 h, read-out: Barnyardgrass damage rating
Summary of the method: as §1

corn (Zea mays) [7] = experiment: Test G Pre-Emergence Protocol; conditions: Zea mays, pre-emergence, 312 h, evaluated after 13 days
Summary of the method: (§2)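 Glasshouse pre-emergence test: soil-sown seeds, sprayed after 1 d at 15.625, 62.5 or 250 g/ha. Conditions 24/16° C day/night, 14 h light, 65% humidity, watering twice daily. Rating 13 d post-spray (100 = total damage).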

[8] = tested on: redroot pigweed (Amaranthus retroflexus); experiment: Test G Pre-Emergence Protocol; conditions: Amaranthus retroflexus, pre-emergence, 312 h, evaluated after 13 days
Summary of the method: as §2

[9] = tested on: velvetleaf (Abutilon theophrasti); experiment: Test G Pre-Emergence Protocol; conditions: Abutilon theophrasti, pre-emergence, 312 h, evaluated after 13 days
Summary of the method: as §2

[10] = tested on: giant foxtail (Setaria faberi); experiment: Test G Pre-Emergence Protocol; conditions: Setaria faberi, pre-emergence, 312 h, evaluated after 13 days
Summary of the method: as §2

[11] = tested on: ivy-leaved morning glory (Ipomoea hederacea); experiment: Test G Pre-Emergence Protocol; conditions: Ipomoea, pre-emergence, 312 h, evaluated after 13 days
Summary of the method: as §2

[12] = tested on: barnyardgrass (Echinochloa crus-galli); experiment: Test G Pre-Emergence Protocol; conditions: Echinochloa crus-galli, pre-emergence, 312 h, evaluated after 13 days
Summary of the method: as §2

[13] = 15.625 g ai/ha, evaluated after 13 days (100=total damage to plant; 0=no damage to plant)
[14] = 62.5 g ai/ha, evaluated after 13 days, 100=total damage to plant, 0=no damage to plant
[15] = 250 g ai/ha, evaluated after 13 days, 100=total damage to plant, 0=no damage to plant

## CCOc1cc(C2CN(C)C(=O)C2C(=O)Nc2cccc(F)c2F)ccc1OC (centres unmarked) [Compound 1719]
Corn (Zea mays) [1]; [13]
  plant injury at 15.625 g/ha: 0%
Corn (Zea mays) [1]; [14]
  plant injury at 62.5 g/ha: 0%
Corn (Zea mays) [1]; [15]
  plant injury at 250 g/ha: 60%
[2]; [13]
  pest or weed control at 15.625 g/ha: 0%
[2]; [14]
  pest or weed control at 62.5 g/ha: 0%
[2]; [15]
  pest or weed control at 250 g/ha: 0%
[3]; [13]
  pest or weed control at 15.625 g/ha: 0%
[3]; [14]
  pest or weed control at 62.5 g/ha: 0%
[3]; [15]
  pest or weed control at 250 g/ha: 0%
[4]; [13]
  pest or weed control at 15.625 g/ha: 60%
[4]; [14]
  pest or weed control at 62.5 g/ha: 80%
[4]; [15]
  pest or weed control at 250 g/ha: 80%
[5]; [13]
  pest or weed control at 15.625 g/ha: 0%
[5]; [14]
  pest or weed control at 62.5 g/ha: 10%
[5]; [15]
  pest or weed control at 250 g/ha: 20%
[6]; [13]
  pest or weed control at 15.625 g/ha: 0%
[6]; [14]
  pest or weed control at 62.5 g/ha: 60%
[6]; [15]
  pest or weed control at 250 g/ha: 80%
Corn (Zea mays) [7]; 15.625 g ai/ha, read-out: Corn damage rating (100=total damage to plant; 0=no damage to plant)
  plant injury at 15.625 g/ha: 0%
Corn (Zea mays) [7]; 62.5 g ai/ha, 100=total damage to plant, 0=no damage to plant, read-out: Corn damage rating
  plant injury at 62.5 g/ha: 10%
Corn (Zea mays) [7]; 250 g ai/ha, read-out: Corn damage rating (100=total damage to plant; 0=no damage to plant)
  plant injury at 250 g/ha: 60%
[8]; 15.625 g ai/ha, read-out: Pigweed, Redroot damage rating (100=total damage to plant; 0=no damage to plant)
  pest or weed control at 15.625 g/ha: 0%
[8]; 62.5 g ai/ha, 100=total damage to plant, 0=no damage to plant, read-out: Pigweed, Redroot damage rating
  pest or weed control at 62.5 g/ha: 0%
[8]; 250 g ai/ha, read-out: Pigweed, Redroot damage rating (100=total damage to plant; 0=no damage to plant)
  pest or weed control at 250 g/ha: 20%
[9]; 15.625 g ai/ha, read-out: Velvetleaf damage rating (100=total damage to plant; 0=no damage to plant)
  pest or weed control at 15.625 g/ha: 0%
[9]; 62.5 g ai/ha, 100=total damage to plant, 0=no damage to plant, read-out: Velvetleaf damage rating
  pest or weed control at 62.5 g/ha: 0%
[9]; 250 g ai/ha, read-out: Velvetleaf damage rating (100=total damage to plant; 0=no damage to plant)
  pest or weed control at 250 g/ha: 0%
[10]; 15.625 g ai/ha, read-out: Foxtail, Giant damage rating (100=total damage to plant; 0=no damage to plant)
  pest or weed control at 15.625 g/ha: 70%
[10]; 62.5 g ai/ha, 100=total damage to plant, 0=no damage to plant, read-out: Foxtail, Giant damage rating
  pest or weed control at 62.5 g/ha: 90%
[10]; 250 g ai/ha, read-out: Foxtail, Giant damage rating (100=total damage to plant; 0=no damage to plant)
  pest or weed control at 250 g/ha: 90%
[11]; 62.5 g ai/ha, 100=total damage to plant, 0=no damage to plant, read-out: Morningglory, Ivy-leaved damage rating
  pest or weed control at 62.5 g/ha: 0%
[11]; 250 g ai/ha, read-out: Morningglory, Ivy-leaved damage rating (100=total damage to plant; 0=no damage to plant)
  pest or weed control at 250 g/ha: 0%
[12]; 15.625 g ai/ha, read-out: Barnyardgrass damage rating (100=total damage to plant; 0=no damage to plant)
  pest or weed control at 15.625 g/ha: 30%
[12]; 62.5 g ai/ha, 100=total damage to plant, 0=no damage to plant, read-out: Barnyardgrass damage rating
  pest or weed control at 62.5 g/ha: 70%
[12]; 250 g ai/ha, read-out: Barnyardgrass damage rating (100=total damage to plant; 0=no damage to plant)
  pest or weed control at 250 g/ha: 90%
